In ChEMBL document CHEMBL1681734, “hNK2 receptor antagonists. The use of intramolecular hydrogen bonding to increase solubility and membrane permeability” (Bioorg Med Chem Lett, 2011):
Converted amounts (≈) assume the structure as drawn.

Legend:
[1] = Aqueous solubility of the compound at pH 6.4; type: physicochemical
[2] = Membrane permeability by PAMPA assay; type: ADME; conditions: read-out: permeability
Substance-K receptor = target: T1, Substance-K receptor (Homo sapiens, UniProt P21452); assay: Displacement of [125I]neurokinin A from human NK2 receptor after 30 mins
T1 sequence (P21452 whole entry): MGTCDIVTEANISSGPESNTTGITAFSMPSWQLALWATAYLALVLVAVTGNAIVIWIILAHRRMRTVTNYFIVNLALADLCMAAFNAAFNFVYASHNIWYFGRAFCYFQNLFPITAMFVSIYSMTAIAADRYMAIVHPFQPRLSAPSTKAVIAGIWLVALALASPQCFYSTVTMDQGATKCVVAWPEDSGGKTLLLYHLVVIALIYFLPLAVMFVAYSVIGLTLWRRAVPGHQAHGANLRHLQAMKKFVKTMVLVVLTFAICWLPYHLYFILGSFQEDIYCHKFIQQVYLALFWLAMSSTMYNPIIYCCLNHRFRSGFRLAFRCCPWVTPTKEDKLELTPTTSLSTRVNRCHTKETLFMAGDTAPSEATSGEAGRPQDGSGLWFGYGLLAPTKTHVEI

[3] = Permeability across apical to basolateral side in human Caco2 cells at 100 uM; type: ADME, cell-based; conditions: Caco-2, read-out: permeability

Row | SMILES | solubility [1] [µg/mL] | Papp [2] [×10⁻⁶ cm/s] | Ki (Substance-K receptor) [nM] | Papp A→B at 100 µM [3] [×10⁻⁶ cm/s]
1 | O=C(NC1(C(=O)N[C@H](CCCN2CCN(CC3CCOCC3)CC2)Cc2ccccc2)CCCC1)c1cc2ccccc2cn1 | 2800 (≈ 4.58 mM) | 15.5 | 2.04 | 25.2
2 | O=C(NC1(C(=O)N[C@H](CCCN2CCN(CC3CCOCC3)CC2)Cc2ccccc2)CCCC1)c1ccc2ccccc2c1 | 1570 (≈ 2.57 mM) | 5.96 | 0.324 | 14.7
3 | O=C(NC1(C(=O)N[C@@H](Cc2ccccc2)C(=O)NCC2CCN(CC3CCOCC3)CC2)CCCC1)c1ccc(-n2cccc2)cc1F | > 2860 | 0.66 | 3.24 | 13.8
4 | COc1cc2ccccc2cc1C(=O)NC1(C(=O)N[C@H](CCCN2CCN(CC3CCOCC3)CC2)Cc2ccccc2)CCCC1 | 3070 (≈ 4.79 mM) | 11.9 | 8.32 | 13.6
5 | O=C(NC1(C(=O)N[C@@H](Cc2ccccc2)C(=O)NCC2CCN(CC3CCOCC3)CC2)CCCC1)c1ccc(-n2cccc2)cc1Cl | > 2820 | 0.16 | 3.98 | 4.21
6 | COc1c(C(=O)NC2(C(=O)N[C@H](CCCN3CCN(CC4CCOCC4)CC3)Cc3ccccc3)CCCC2)ccc2ccccc12 | 1910 (≈ 2.98 mM) | 6.77 | 44.7 | 11.7

Continued, values first:

Row | solubility [1] [µg/mL] | Papp [2] [×10⁻⁶ cm/s] | Ki (Substance-K receptor) [nM] | Papp A→B at 100 µM [3] [×10⁻⁶ cm/s] | SMILES
7 | > 2410 | – | – | – | CCCCc1ccc(C(=O)NC2(C(=O)N[C@@H](Cc3ccccc3)C(=O)NCC3CCN(CC4CCOCC4)CC3)CCCC2)cc1
8 | > 6600 | – | – | – | CCCCc1ccc(C(=O)NC2(C(=O)N[C@@H](Cc3ccccc3)C(=O)NCC3CCN(CC4CCOCC4)CC3)CCCC2)nc1
9 | 1450 (≈ 2.27 mM) | – | 0.234 | < 1 | O=C(NC1(C(=O)N[C@@H](Cc2ccccc2)C(=O)NCC2CCN(CC3CCOCC3)CC2)CCCC1)c1ccc(-n2cccc2)cc1
